Source: PubChem BioAssay (NCI)
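Grown in 96-well plates, cells were treated for 48 hours with each compound at five concentrations. Insufficient inhibition: endpoint recorded as highest concentration tested. At the GI50, growth is halved. TGI marks complete inhibition of growth.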

Key:
Assay in all cases: NCI tumour cell line growth inhibition, 48 h
[1] = tested on: UACC-62 melanoma
[2] = tested on: U251 CNS
[3] = tested on: SNB-75 CNS
[4] = tested on: CAKI-1 renal
[5] = tested on: SW-620 colon
[6] = tested on: SK-OV-3 ovarian
[7] = tested on: NCI-H226 lung
[8] = tested on: SF-539 CNS
[9] = tested on: OVCAR-8 ovarian
[10] = tested on: MOLT-4 leukemia
[11] = tested on: COLO 205 colon
[12] = tested on: KM12 colon
[13] = tested on: A498 renal
[14] = tested on: M14 melanoma
[15] = tested on: EKVX NSCLC
[16] = tested on: HOP-92 NSCLC
[17] = tested on: 786-0 renal
[18] = tested on: BT-549 breast
[19] = tested on: OVCAR-5 ovarian
[20] = tested on: K-562 leukemia
[21] = tested on: MALME-3M melanoma
[22] = tested on: A549 NSCLC
[23] = tested on: OVCAR-4 ovarian
[24] = tested on: RPMI-8226 leukemia
[25] = tested on: MDA-MB-231 breast
[26] = tested on: MDA-MB-435
[27] = tested on: NCI/ADR-RES ovarian
[28] = tested on: NCI-H23 lung
[29] = tested on: SK-MEL-28 melanoma
[30] = tested on: SR leukemia
[31] = tested on: ACHN renal
[32] = tested on: UO-31 renal
[33] = tested on: NCI-H460 lung
[34] = tested on: MCF7 breast
[35] = tested on: NCI-H522 lung
[36] = tested on: HCT-116 colon
[37] = tested on: TK-10 renal
[38] = tested on: SN12C renal
[39] = tested on: HL-60(TB) leukemia
[40] = tested on: LOX IMVI melanoma
[41] = tested on: HOP-62 NSCLC
[42] = tested on: SF-295 CNS
[43] = tested on: UACC-257 melanoma
[44] = tested on: DU-145 prostate
[45] = tested on: IGROV1 ovarian
[46] = tested on: PC-3 prostate
[47] = tested on: HT29 colon
[48] = tested on: HS 578T breast
[49] = tested on: SK-MEL-5 melanoma
[50] = tested on: SF-268 CNS
[51] = tested on: HCC-2998 colon
[52] = tested on: SNB-19 CNS
[53] = tested on: SK-MEL-2 melanoma
[54] = tested on: T-47D breast
[55] = tested on: CCRF-CEM leukemia
[56] = tested on: RXF 393 renal
[57] = tested on: HCT-15 colon

For `Oc1cccc2ccc(-c3nnc(SCc4ccc(O)c5ncccc45)n3-c3ccccc3)nc12`, the GI50 [1] was 1.06 µM, the TGI [1] was 5.08 µM and the GI50 [2] was 0.293 µM. It also gave a TGI [2] of 7.6 µM, a GI50 [3] of 0.279 µM and a TGI [3] of 4.42 µM. The GI50 [4] was 0.518 µM, the TGI [4] was 7.25 µM and the GI50 [5] was 0.403 µM. It also gave a TGI [5] greater than 35.7 µM, a GI50 [6] of 0.529 µM and a TGI [6] of 4.89 µM. For the same compound, the GI50 [7] was 3.04 µM, the TGI [7] was greater than 50.8 µM and the GI50 [8] was 0.43 µM. For the same compound, the TGI [8] was 3.41 µM, the GI50 [9] was 0.408 µM and the TGI [9] was 11.9 µM. For the same compound, the GI50 [10] was 0.459 µM, the TGI [10] was greater than 47.4 µM and the GI50 [11] was 4.36 µM. For the same compound, the TGI [11] was greater than 100 µM, the GI50 [12] was 0.507 µM and the TGI [12] was greater than 100 µM. For the same compound, the GI50 [13] was 1.81 µM, the TGI [13] was greater than 31 µM and the GI50 [14] was 0.476 µM. For the same compound, the TGI [14] was 3.5 µM, the GI50 [15] was 0.788 µM and the TGI [15] was greater than 26.4 µM. For the same compound, the GI50 [16] was 0.257 µM, the TGI [16] was 0.94 µM and the GI50 [17] was 0.759 µM. For the same compound, the TGI [17] was 11.7 µM, the GI50 [18] was 0.419 µM and the TGI [18] was greater than 21.7 µM. For the same compound, the GI50 [19] was 3.43 µM, the TGI [19] was greater than 81.1 µM and the GI50 [20] was 0.339 µM. It also gave a TGI [20] greater than 100 µM, a GI50 [21] of 0.599 µM and a TGI [21] of 5 µM. For the same compound, the GI50 [22] was 0.651 µM, the TGI [22] was greater than 35.8 µM and the GI50 [23] was 0.672 µM. For the same compound, the TGI [23] was 9.21 µM, the GI50 [24] was 0.437 µM and the TGI [24] was greater than 100 µM. It also gave a GI50 [25] of 0.996 µM, a TGI [25] of 16.2 µM and a GI50 [26] of 0.441 µM. It also gave a TGI [26] greater than 73.8 µM, a GI50 [27] of 0.356 µM and a TGI [27] of 6.33 µM. It also gave a GI50 [28] of 0.533 µM, a TGI [28] greater than 33.5 µM and a GI50 [29] of 0.533 µM. The TGI [29] was greater than 100 µM, the GI50 [30] was 0.385 µM and the TGI [30] was greater than 50.8 µM. For the same compound, the GI50 [31] was 0.419 µM, the TGI [31] was 2.44 µM and the GI50 [32] was 0.297 µM. It also gave a TGI [32] of 1.57 µM, a GI50 [33] of 0.311 µM and a TGI [33] of 1.56 µM. The GI50 [34] was 0.325 µM, the TGI [34] was greater than 35.3 µM and the GI50 [35] was 0.456 µM. The TGI [35] was 11.9 µM, the GI50 [36] was 0.324 µM and the TGI [36] was 9.38 µM. The GI50 [37] was 0.428 µM, the TGI [37] was 7.28 µM and the GI50 [38] was 0.448 µM. For the same compound, the TGI [38] was 18.3 µM, the GI50 [39] was 0.369 µM and the GI50 [40] was 0.556 µM. For the same compound, the TGI [40] was 7.94 µM, the GI50 [41] was 0.519 µM and the TGI [41] was 6.84 µM. For the same compound, the GI50 [42] was 0.46 µM, the TGI [42] was 11.9 µM and the GI50 [43] was 0.708 µM. The TGI [43] was 6.62 µM, the GI50 [44] was 0.58 µM and the TGI [44] was greater than 100 µM. The GI50 [45] was 0.735 µM, the TGI [45] was 11.5 µM and the GI50 [46] was 0.391 µM. For the same compound, the TGI [46] was greater than 37.8 µM, the GI50 [47] was 7.4 µM and the TGI [47] was greater than 100 µM. For the same compound, the GI50 [48] was 0.398 µM, the TGI [48] was 6.24 µM and the GI50 [49] was 0.579 µM. The GI50 [50] was 0.471 µM, the TGI [50] was greater than 73.9 µM and the GI50 [51] was 0.612 µM. The TGI [51] was greater than 100 µM, the GI50 [52] was 0.425 µM and the TGI [52] was greater than 44.1 µM. The GI50 [53] was 0.54 µM, the TGI [53] was 5.71 µM and the GI50 [54] was 0.38 µM. The TGI [54] was 2.57 µM, the GI50 [55] was 0.411 µM and the TGI [55] was greater than 63.7 µM. The GI50 [56] was 0.744 µM, the TGI [56] was 19.1 µM and the GI50 [57] was 0.323 µM. For the same compound, the TGI [57] was greater than 37.1 µM.
